Test results as given in patent publication US9937144B2, “Treatment of drug abuse by preventing GAPDH nitrosylation” (THE JOHNS HOPKINS UNIVERSITY, priority 2013, dated 2018).

Columns and labels:
mice [1] = details: for cocaine's locomotor activation, MAO-B inhibitor combined with cocaine: i.p. for 5 days, cocaine 30 mg/kg i.p., total beam breaks, FIGS. 4G and 4H
Experimental: Open-Field Test. Open-field assessments were conducted as described (Levine et al., 2011; Maze et al., 2010) with brief modifications. The open field is a square arena with the dimensions 47 cm 3 47 cm with a 38.1 cm high clear plastic wall. Activity chambers were computer interfaced for data sampling. Sixteen infrared photobeams in each direction (16×16), 2.77 cm spacing, were used to record movement. The San Diego PAS software recorded the total number of beam breaks, as well as the beam break's location in the center and peripheral areas.
Mice were divided in 5 groups (n=10-12 each). Each group of mice were injected (i.p.) with either CGP3466B or the MAO-B inhibitors deprenyl, rasagiline, lazabemide, and pargyline for 5 days. Mice were allowed to acclimate to the apparatus for 1 hr. After 60 min, mice received saline or cocaine (30 mg/kg of cocaine i.p.), and were returned to the open-field apparatus for a subsequent 75 min in which their activity was recorded. All data was measured in 5 min intervals and aggregated as necessary. Beam breaks or distance traveled for 20 min following cocaine/saline intraperitoneal injection after the first stage of testing were used to determine immediate peak locomotor response from cocaine injection. In between testing of mice, the arena was wiped with Vimoba cleaning solution. Mice were tested at the same time every day in order to minimize any variation due to circadian rhythm changes.

mice [2] = assay: Conditioned place preference; assay type: in vivo
Experimental: Conditioned Place Preference. The test was performed as described previously (Levine et al., 2011; Maze et al., 2010; Xi et al., 2011) with minor modifications. Two groups of wild-type mice were used to study the effect of CGP 3466B (0.15 mg/kg) on cocaine-(7 mg/kg) induced conditioned place preference or aversion. A three-chamber place preference apparatus was used. This apparatus consisted of two large side compartments and one small central compartment, which separated the large compartments. Two of the large compartments had different visual and tactile cues. One of the large compartments contained a green wire mesh floor. The second large compartment contained a cream-colored rubber floor. […]
Wild mice were divided into two groups. […] Experimental software (Any-Maze Video Tracking System v. 4.72) measured the amount of time each mouse spent in each of the three compartments.
For the next 10 days (days 2-11), mice entered the conditioning stage of testing with one session per day. […] On the probe trial day (24 hr after the last conditioning session), mice were given an injection of saline then were allowed to freely explore the three compartments for 15 min the time spent in each of the compartments was recorded by computer software. CPP score was calculated as time spent in cocaine chamber minus the time spent in saline/CGP3466B treated chamber.

[3] = molecular target: T1, nitrosylation of GAPDH (SNO-GAPDH) (Mus musculus, UniProt P16858); assay: S-nitrosylation biotin switch assay in cocaine-treated primary cortical neurons; assay type: cell-based; details: 16 hr, deprenyl 2 nM, FIG. 4A
From the text: S-nitrosvlation biotin switch assay.

p53, PUMA = assay: p53 activation and PUMA induction in striatum after neurotoxic cocaine doses; assay type: in vivo, mice
Experimental: Sample Preparation from Cocaine-Injected Mice.
Chromatin immunoprecipitation (ChIP) assay.
Co-Immunoprecipitation. Striatum tissue were lysed in lysis buffer (50 mM Tris pH 7.4, 150 mM NaCl, 0.1% Chaps, 100 nM deferoxamine and 1 mM EDTA) and homogenized by passing through a 26-gauge needle. Crude lysates were cleared of insoluble debris by centrifugation at 14,000 g. IP buffer (50 mM Tris pH 7.4, 150 mM NaCl, 0.1% Chaps, 100 μM deferoxamine, 1 mM EDTA and 0.1 mg/ml BSA) was added to […] of cell lysates to bring samples to a total volume of 1 ml. Anti-Siah and anti-SUV39H1 antibody and 30 μl of protein G agarose were added and incubated on a rotator at 4° C. The protein G agarose was washed four times with lysis buffer and quenched with 30 μl of SDS sample buffer. Co-immunoprecipitates were resolved by SDS-PAGE and analyzed by western blotting with anti-GAPDH and anti-SUV39H1 antibodies.

striatum = assay: TUNEL assay of cell death in striatum induced by cocaine; assay type: in vivo, mice; details: for cocaine induced cell death in striatum: MAO-B inhibitors with cocaine, FIG. 9B
Experimental: (§1) TUNEL assay. Primary neurons were grown on coverslips with a density of […] per 12-well. Cells were treated with deprenyl (2 μM), rasagaline (10 μM), lazabemide (10 μM) or pargyline (10 μM) for 16 hr and cell death was measured by TUNEL assays using TUNEL enzyme (Roche) and TUNEL label (Roche) following the manufacturer's instructions (Kickstein et al., 2010). To analysis cell death induced by neurotoxic dose of cocaine, we used TUNEL apoptosis detection kit (Millipore) using manufacturer's protocol (Lathia et al., 2010). Positive nuclei were counted in 30 fields (×400) for each slide.

mice [4] = assay: Rotarod performance; assay type: in vivo; details: for rotarod performance with cocaine: 5 days: deprenyl 0.25, rasagiline 2.5, pargyline 50, lazabemide 50 mg/kg, then cocaine 50 mg/kg, FIG. 9C
Experimental: Rotarod Performance. The test was performed as described previously (Xi et al., 2011) with minor modifications. A four-station mouse rotarod device (AccuScan Instruments) was used to study the effects of CGP3466B, Deprenyl, Rasagiline, Lazabemide and Pargyline on cocaine induced operant locomotion in mice. The speed of rotation of the rotarod was increased from 4 to 32 rpm over 7 min.
Mice were divided into 5 groups (n=8). For 5 days prior to testing mice received one dose of deprenyl (0.25 mg/kg), rasagiline (2.5 mg/kg), pargyline (50 mg/kg), lazabemide (50 mg/kg), or saline followed by a high dose of cocaine (50 mg/kg). Mice were placed on the rotarod at a starting speed of 4 rpm, and the speed of the rotarod was increased to 32 rpm over the course of 7 min. This was repeated for a total of three trials in a day, and the latency at which the mice fell off the rotarod was recorded. Mice were tested at the same time every day in order to minimize any variation due to circadian rhythm changes.

Body weight of mice = assay type: in vivo; details: FIG. 8B
GAPDH nitrosylation [5] = molecular target: GAPDH nitrosylation (Homo sapiens, UniProt P04406); details: cited from earlier work; for GAPDH nitrosylation in vitro: as reported earlier (Hara et al., 2006)
GAPDH binding to Siah1 = GAPDH binding to Siah1 (Homo sapiens, UniProt P04406); details: resultant of prevented GAPDH nitrosylation; cited from earlier work
monoamine oxidase = details: Hara et al., 2006; cited from earlier work
GAPDH nitrosylation [6] = molecular target: T2, GAPDH nitrosylation (Mus musculus, UniProt P16858); details: as reported earlier (Hara et al., 2006); cited from earlier work
T2 construct: in the brains of mice treated with the neurotoxic agent; host or cells: mouse brain

GAPDH = GAPDH (Mus musculus, UniProt P16858); assay: Nuclear translocation of GAPDH in striatum of cocaine-treated mice
[7] = molecular target: T1, nitrosylation of GAPDH (SNO-GAPDH); assay: S-nitrosylation biotin switch assay on striatum lysates of cocaine-injected mice
[8] = system: SUV39H1, H3K9 trimethylation, c-fos; assay: Western blot/ChIP of striatum after behavioral-stimulant cocaine doses (SUV39H1, H3K9 trimethylation, c-fos)
primary cortical neurons = details: TUNEL, 16 hr; deprenyl 2 μM, rasagiline, lazabemide, pargyline 10 μM; FIG. 4B
Experimental: as §1

T1 sequence (P16858 whole entry): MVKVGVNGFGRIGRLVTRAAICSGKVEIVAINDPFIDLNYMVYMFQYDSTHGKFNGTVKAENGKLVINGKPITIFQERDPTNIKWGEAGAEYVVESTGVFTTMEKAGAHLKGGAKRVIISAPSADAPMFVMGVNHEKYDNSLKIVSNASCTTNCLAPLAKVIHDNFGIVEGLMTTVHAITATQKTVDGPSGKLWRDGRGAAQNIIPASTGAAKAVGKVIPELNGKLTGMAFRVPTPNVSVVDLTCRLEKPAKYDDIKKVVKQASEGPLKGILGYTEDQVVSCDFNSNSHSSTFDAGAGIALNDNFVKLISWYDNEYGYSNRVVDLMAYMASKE
Chain of GAPDH nitrosylation (Homo sapiens, UniProt P04406) (P04406 whole entry): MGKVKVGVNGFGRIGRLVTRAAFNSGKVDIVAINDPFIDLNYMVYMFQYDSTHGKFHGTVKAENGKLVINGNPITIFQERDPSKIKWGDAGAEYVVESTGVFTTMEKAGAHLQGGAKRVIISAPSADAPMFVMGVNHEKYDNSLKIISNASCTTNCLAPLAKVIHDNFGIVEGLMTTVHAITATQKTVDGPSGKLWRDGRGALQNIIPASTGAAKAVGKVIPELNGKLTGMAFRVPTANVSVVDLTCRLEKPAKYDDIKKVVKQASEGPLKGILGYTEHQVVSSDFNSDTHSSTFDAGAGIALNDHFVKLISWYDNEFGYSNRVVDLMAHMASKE
T2 sequence (P16858 whole entry): as the sequence (P16858 whole entry) above
Chain of GAPDH (P16858 whole entry): as above
Chain of GAPDH binding to Siah1 (P04406 whole entry): as the sequence (P04406 whole entry) above

C#CCN(C)CC1=Cc2ccccc2Oc2ccccc21 [CGP3466B, N-(dibenz(b,f)oxepin-10-ylmethyl)-N-methyl-N-prop-2-ynylamine]
locomotor stimulation by cocaine (mice [1]; CGP3466B 0.15 mg/kg IP once a day for 5 days, cocaine on the fifth day, open field, FIG. 3H): substantially reduces | basal locomotor activity (mice [1]; CGP3466B 0.15 mg/kg, no cocaine): no effect | central or peripheral movement (mice [1]; mouse, in vivo): no adverse effects | locomotor stimulation in nNOS knockout mice treated with cocaine (mice [1]; nNOS knockout mice, FIG. 3I): does not further decrease | cocaine preference (conditioned place preference) (mice [2]; CGP3466B 0.15 mg/kg 2 hr before each conditioning injection, cocaine 7 mg/kg, FIG. 3J): reduced | conditioned place preference, single dose only on the day of testing (mice [2]; mice conditioned in the absence of CGP3466B, FIG. 6D): failed to alter | cocaine-induced nitrosylation of GAPDH in cortical cultures [3]: prevents | induction of PUMA level (p53, PUMA; FIG. 5E): blocks | activation of p53 (p53, PUMA; FIGS. 5C and 5D): blocks | apoptosis (TUNEL) in striatum induced by cocaine (striatum; cocaine 30 and 50 mg/kg, chronic treatment with CGP3466B, FIG. 5F): markedly reduces | increase of latency for falling off the rod (mice [4]; co-treatment with CGP3466B, cocaine 50 mg/kg, FIG. 5G): 2.5- to 3 fold | body weight (Body weight of mice): no adverse effects | GAPDH nitrosylation in vitro (GAPDH nitrosylation [5]): potently inhibits | concentrations at which nitrosylation of GAPDH is prevented (GAPDH nitrosylation [5]): subnanomolar | GAPDH binding to Siah1 (GAPDH binding to Siah1): inhibition | monoamine oxidase inhibitory activity (monoamine oxidase): lack monoamine oxidase inhibitory activity | GAPDH nitrosylation in the brains of mice treated with MPTP (GAPDH nitrosylation [6]): potently inhibits | cocaine-elicited nuclear translocation of GAPDH (GAPDH; behavioral-stimulant doses of cocaine, FIG. 3C): prevents | nuclear translocation of GAPDH at higher doses of cocaine (GAPDH; cocaine 30-50 mg/kg daily for 5 days, FIG. 5B): prevented | stimulation of GAPDH nitrosylation in striatum elicited by cocaine ([7]; 0.15 mg/kg CGP3466B, behavioral-stimulant doses of cocaine (5-30 mg/kg), FIG. 7A): almost completely blocks | nitrosylation of GAPDH in the striatum elicited by higher doses of cocaine ([7]; cocaine 30-50 mg/kg daily for 5 days with or without CGP3466B, FIG. 5A): abolished | cocaine-elicited change of H3K9 trimethylation ([8]; FIG. 3E): prevented | degradation of SUV39H1 ([8]; behavioral-stimulant doses of cocaine, FIG. 3D): blocks | stimulation of c-fos expression ([8]; behavioral-stimulant doses of cocaine, FIGS. 3F-3G): blocks

C#CCN(C)[C@H](C)Cc1ccccc1 [deprenyl, R-(−)-N-methyl-N-(prop-2-ynyl)-2-aminophenylpropane]
cocaine's locomotor activation, MAO-B inhibitor combined with cocaine (mice [1]): significantly decreases | cocaine-induced nitrosylation of GAPDH in cortical cultures [3]: prevents | cell survival / cell death of primary cortical neurons (primary cortical neurons): no effect | cocaine induced cell death in striatum (striatum): do not rescue | rotarod performance with cocaine (mice [4]): do not improve | GAPDH nitrosylation in vitro (GAPDH nitrosylation [5]): potently inhibits | GAPDH nitrosylation in the brains of mice treated with MPTP (GAPDH nitrosylation [6]): potently inhibits

NCCNC(=O)c1ccc(Cl)cn1 [lazabemide]
cocaine's locomotor activation, MAO-B inhibitor combined with cocaine (mice [1]): greater locomotor stimulation than cocaine alone | cocaine-induced nitrosylation of GAPDH in cortical cultures [3]: do not prevent | cocaine induced cell death in striatum (striatum): do not rescue | rotarod performance with cocaine (mice [4]): do not improve

C#CCN(C)Cc1ccccc1 [pargyline]
cocaine's locomotor activation, MAO-B inhibitor combined with cocaine (mice [1]): greater locomotor stimulation than cocaine alone | cocaine-induced nitrosylation of GAPDH in cortical cultures [3]: do not prevent | cocaine induced cell death in striatum (striatum): do not rescue | rotarod performance with cocaine (mice [4]): do not improve

C#CCN[C@@H]1CCc2ccccc21 [rasagiline]
cocaine's locomotor activation, MAO-B inhibitor combined with cocaine (mice [1]): greater locomotor stimulation than cocaine alone | cocaine-induced nitrosylation of GAPDH in cortical cultures [3]: do not prevent | cocaine induced cell death in striatum (striatum): do not rescue | rotarod performance with cocaine (mice [4]): do not improve
